Results as given in US20050288255A1, “Modulation of lysophosphatidylcholine and treatment of diet-induced conditions” (priority 2004, published 2005).

How the values were obtained:
Assay type in all cases: cell-based
[1] = test system: L6 myotube; test: Insulin-stimulated [14C]glucose conversion to glycogen in differentiated L6 myotubes with varying LPC; conditions: 100 nM insulin, under reduced levels of lysophosphatidylcholine, FIG. 5(b)
Description: (§1) Effects of LPC on glucose metabolism were assessed using (a) HepG2 cells as a model of liver cells, (b) differentiated L6 myotubes as a model of skeletal muscle cells and (c) differentiated 3T3L1 cells as a model of adipocytes. To assess usage of glucose for glycogen biosynthesis, cells were incubated in Krebs Ringer Hepes medium with 5 mM [^14C]glucose, 100 nM insulin, and varying concentrations of LPC. At the end of the incubation period, the cells were washed and detached from the plates with 30% KOH. Carrier glycogen was then added to the cell lysate at a concentration of 40 mg/ml and then boiled for 30 min. Glycogen was precipitated from the solution by the addition of 800 μl 95% ice-cold ethanol and centrifuged at 1000×g. The pellet was re-suspended in buffer, and an aliquot of the sample was counted in a scintillation counter to determine the amount of [^14C]glucose converted to glycogen. Glucose metabolism by differentiated 3T3L1 cells was assessed based on cellular uptake of [^3H]deoxyglucose. The 3T3L1 cells were incubated in Krebs Ringer Hepes medium with 5 mM [^3H]deoxyglucose, 100 nM insulin, and varying concentration of LPC. Glucose uptake was assessed based on cellular accumulation of [^3H]deoxyglucose after a 30 min incubation period.

[2] = test system: 3T3L1 adipocytes; test: Insulin-stimulated [3H]deoxyglucose uptake in differentiated 3T3L1 adipocytes with varying LPC; conditions: 100 nM insulin, 30 min, under reduced levels of lysophosphatidylcholine, FIG. 5(c)
Description: as §1

[3] = test system: HepG2 cells; test: Insulin-stimulated [14C]glucose conversion to glycogen in HepG2 cells with varying LPC; conditions: 100 nM insulin, under reduced levels of lysophosphatidylcholine, FIG. 5(a)
Description: as §1

Measured: insulin-stimulated glucose metabolism

lysophosphatidylcholine
increased: all assays above
